Reference: patent US20200046641A1, “LIPOSOMES FOR THE TREATMENT OF OCULAR DISEASES” (TDC Technology Dedicated to Care srl, priority 2018, published 2020)

Test system: chorioallantoic membrane (CAM) of 10 days embryonated eggs
Experiment: Ocular irritation by HET CAM test
Parameters: species or system hen
Details: 0.3 ml applied on CAM; bleeding, vasoconstriction, clotting
Excerpt: The in vitro test described in the present example has been carried out in order to evaluate if the ocular topical administration of the liposomes could cause irritation to the eye. To such purpose, the in vitro HET CAM test as described in […]-Recommended Test Method Protocol has been carried out: Hen's Egg Test-Chorioallantoic Membrane (HET-CAM) Test Method. The HET CAM test has been carried out by observing the irritation effects (bleeding, vasoconstriction and clotting) induced on the chorioallantoic membrane (CAM) of 10 days embryonated eggs by applying 0.3 ml of liposomes under test and calculating the ocular irritation index (“OII”) according to the formula described in Table 6. [table] The liposomes under examination in the present test are F1 and F2 liposomes. By means of the same method, the following controls have been also tested: SDS 1% (positive control with slow irritation), 0.1 N NaOH (positive control with fast irritation) and NaCl 0.9% (negative control). The embryonated eggs for this test have been obtained by the […]. farm, Tarragona, Spain. The eggs are kept at a temperature of 12±1° C. for at least 24 hours before placing them into the incubator at controlled temperature (37.8° C.) and humidity (50-60%) during the incubation days. The data have been analyzed as mean ±standard deviation at the moment when the injury occurred (n=3/group).

## [Na+].[OH-] [0.1 N NaOH, NaOH]
  Irritating effects (HET CAM): irritating effects

## CCCCCCCCCCCCOS(=O)(=O)[O-].[Na+] [SDS 1%, SDS]
  Irritating effects (HET CAM): irritating effects
